Literature values in patent publication US20150196506A1, “CHEWING GUM FORMULATIONS COMPRISING DAPOXETINE AND TADALAFIL” (Sanovell Ilac Sanayi Ve Ticaret Anonim Sirketi, priority 2012, published 2015).

Assays:
[1] = following oral administration
[2] = similarly poorly dissolved in gastric juice

binding to plasma proteins [1] | solubility in water [2] | SMILES
almost completely | – | CN(C)[C@@H](CCOc1cccc2ccccc12)c1ccccc1 [dapoxetine]
– | poorly soluble in water | CN1CC(=O)N2[C@H](c3ccc4c(c3)OCO4)c3[nH]c4ccccc4c3C[C@@H]2C1=O [Tadalafil, (6R-trans)-6-(1,3-benzodioxol-5-yl)-2,3,6,7,12,12a-hexahydro-2-methyl-pyrazino [1′,2′:1,6] pyrido[3,4-b]indole-1,4-dione]
